Measurements taken from ChEMBL document CHEMBL4725286, “Synthesis and antibiofilm evaluation of 3-hydroxy-2,3-dihydroquinazolin-4(1H)-one derivatives against opportunistic pathogen Acinetobacter baumannii” (2020).
Calls of active or inactive are those of the source. No cut-off for these calls is given here.

Legend:
Acinetobacter baumannii [1] = assay: Antibiofilm activity against Acinetobacter baumannii assessed as inhibition of planktonic growth at 300 uM; format: functional, organism-based
Acinetobacter baumannii [2] = assay: Antibiofilm activity against Acinetobacter baumannii assessed as inhibition of biofilm formation at 50 uM incubated for 24 hrs at stationary condition by crystal violet staining based assay relative to control; format: functional
Acinetobacter baumannii [3] = assay: Antibiofilm activity against drug-resistant Acinetobacter baumannii 1925052 assessed as inhibition of biofilm formation at 50 uM incubated for 24 hrs at stationary condition by crystal violet staining based assay relative to control; format: functional
Acinetobacter baumannii [4] = assay: Synergistic antibacterial activity against Acinetobacter baumannii S1 assessed as FIC incubated for 24 hrs in presence of gentamycin sulfate by checkerboard titration assay; format: functional
Acinetobacter baumannii [5] = assay: Synergistic antibacterial activity against Acinetobacter baumannii S1 assessed as FICI incubated for 24 hrs in presence of gentamycin sulfate by checkerboard titration assay; format: functional
Acinetobacter baumannii [6] = assay: Antibacterial activity against Acinetobacter baumannii assessed as reduction in motility at 50 uM after 24 hrs photographic-based method; format: functional, organism-based
Acinetobacter baumannii [7] = assay: Synergistic antibacterial activity against Acinetobacter baumannii S1 incubated for 24 hrs in presence of gentamycin sulfate by checkerboard titration assay; format: functional
Escherichia coli = assay: Antibiofilm activity against Escherichia coli assessed as inhibition of biofilm formation at 50 uM incubated for 24 hrs at stationary condition by crystal violet staining based assay relative to control; format: functional; conditions: DH5[alpha]
Acinetobacter baumannii [8] = assay: Antibacterial activity against Acinetobacter baumannii S1 incubated for 24 hrs by checkerboard titration assay; format: functional
Pseudomonas aeruginosa = assay: Antibiofilm activity against Pseudomonas aeruginosa ATCC 27853 assessed as inhibition of biofilm formation at 50 uM incubated for 24 hrs at stationary condition by crystal violet staining based assay relative to control; format: functional
Acinetobacter baumannii [9] = assay: Induction of morphological changes in Acinetobacter baumannii biofilm inhibition assessed as reduction in extracellular polysaccharide at 10 uL preincubated for 24 hrs followed by incubating in dark for 1 hr by optical density based plate reader assay relative to control; format: functional; design: scale not given: the % may be the effect or the level left
Acinetobacter baumannii [10] = assay: Antibacterial activity against Acinetobacter baumannii assessed as bacterial death at 50 uM incubated for 15 mins by SYTO9 and PI staining based fluorescence microscopic method; format: functional, organism-based
Acinetobacter baumannii [11] = assay: Synergistic antibacterial activity against Acinetobacter baumannii S1 assessed as FIC incubated for 24 hrs in presence of 1-(3-chlorobenzyl)-3-hydroxy-2-(2-hydroxyphenyl)-2,3-dihydroquinazolin-4(1H)-one by checkerboard titration assay; format: functional
Acinetobacter baumannii [12] = assay: Synergistic antibacterial activity against Acinetobacter baumannii S1 assessed as FIC incubated for 24 hrs in presence of 3-hydroxy-2-isopropyl-1-octyl-2,3-dihydroquinazolin-4(1H)-one by checkerboard titration assay; format: functional

Row | Compound | inhibition (Acinetobacter baumannii [1]) | inhibition at 50 µM (Acinetobacter baumannii [2]) [%] | also measured
1 | CCCCN1c2ccccc2C(=O)N(O)C1c1ccccc1O (stereo not given) | inactive | 29.7 | 
2 | CCCCCCCCCCCCCCCCN1c2ccccc2C(=O)N(O)C1c1ccccc1O (stereo not given) | inactive | 4.7 | 
3 | CCCCCCCCN1c2ccccc2C(=O)N(O)C1c1ccccc1O (stereo not given) | inactive | 23.5 | 
4 | O=C1c2ccccc2N(Cc2cccc(Cl)c2)C(c2ccccc2O)N1O (stereo not given) | inactive | 34.1 | inhibition at 50 µM (Acinetobacter baumannii [3]): 38.2%; Ratio (Acinetobacter baumannii [4]): 0.002; fractional inhibitory concentration index (FICI) (Acinetobacter baumannii [5]): 0.252; Activity (Acinetobacter baumannii [6]): Active; MIC (Acinetobacter baumannii [7]): 2 µg/mL; inhibition at 50 µM (Escherichia coli): 27.5%; MIC (Acinetobacter baumannii [8]): 1020 µg/mL; inhibition at 50 µM (Pseudomonas aeruginosa): 55.4%; Activity (Acinetobacter baumannii [9]): 34%
5 | O=C1c2ccccc2NC(c2ccccc2O)N1O (stereo not given) | inactive | 16.3 | 
6 | CCCCCCCCN1c2ccccc2C(=O)N(O)C1c1ccc(Cl)cc1 (stereo not given) | inactive | 5.2 | 
7 | CCCCCCCCN1c2ccccc2C(=O)N(O)C1c1ccccc1Cl (stereo not given) | inactive | 8.1 | 
8 | CCCCCCCCN1c2ccccc2C(=O)N(O)C1C(C)C (stereo not given) | inactive | 10.2 | Activity (Acinetobacter baumannii [10]): inactive
9 | CCCCCCCCN1c2ccccc2C(=O)N(O)C1c1ccc(OC)cc1 (stereo not given) | inactive | 1.3 | 
10 | N#Cc1ccccc1CN1c2ccccc2C(=O)N(O)C1c1ccccc1O (stereo not given) | inactive | 17.6 | 
11 | CCCCCCN1c2ccccc2C(=O)N(O)C1c1ccccc1O (stereo not given) | inactive | 7.7 | 
12 | O=C(Cc1cccc(Br)c1)N[C@H]1CCOC1=O |  | 7.9 | inhibition at 50 µM (Acinetobacter baumannii [3]): 28.2%; inhibition at 50 µM (Escherichia coli): 50.1%; inhibition at 50 µM (Pseudomonas aeruginosa): -1.72%
13 | CN1c2ccccc2C(=O)N(O)C1c1ccccc1O (stereo not given) | inactive | 14.6 | 
14 | CCCCCCCCCCCCCCN1c2ccccc2C(=O)N(O)C1c1ccccc1O (stereo not given) | inactive | 20.9 | 
15 | CCCCCCCCN1c2ccccc2C(=O)N(O)C1c1ccccc1OC (stereo not given) | inactive | 7.2 | 
16 | O=C1c2ccccc2N(Cc2cccc(F)c2)C(c2ccccc2O)N1O (stereo not given) | inactive | 27.5 | 
17 | CCCCCCCCN1c2ccccc2C(=O)N(O)C1c1ccc(C)cc1 (stereo not given) | inactive | 9.2 | 
18 | CN[C@@H]1[C@@H](O)[C@@H](O[C@@H]2[C@@H](O)[C@H](O[C@H]3O[C@H]([C@@H](C)NC)CC[C@H]3N)[C@@H](N)C[C@H]2N)OC[C@]1(C)O.O=S(=O)(O)O |  |  | FIC (Acinetobacter baumannii [11]): 0.25; FIC (Acinetobacter baumannii [12]): 0.25; MIC (Acinetobacter baumannii [8]): 0.25 µg/mL
19 | O=C1c2ccccc2N(Cc2ccccc2)C(c2ccccc2O)N1O (stereo not given) | inactive | 17.5 | 
20 | CCCCCCCCN1c2ccccc2C(=O)N(O)C1c1ccc(O)cc1 (stereo not given) | inactive | 13.3 | 
21 | CCCCCCCCCCCCN1c2ccccc2C(=O)N(O)C1c1ccccc1O (stereo not given) | inactive | 8.9 | 
22 | CCC/C=C/C1N(O)C(=O)c2ccccc2N1CCCCCCCC (stereo not given) | inactive | 2.4 | 
23 | CCCCCCCCCCN1c2ccccc2C(=O)N(O)C1c1ccccc1O (stereo not given) | inactive | 30.7 | inhibition at 50 µM (Acinetobacter baumannii [3]): 43.4%; Ratio (Acinetobacter baumannii [4]): 0.002; fractional inhibitory concentration index (FICI) (Acinetobacter baumannii [5]): 0.252; Activity (Acinetobacter baumannii [6]): Active; MIC (Acinetobacter baumannii [7]): 2 µg/mL; inhibition at 50 µM (Escherichia coli): 40.8%; MIC (Acinetobacter baumannii [8]): 1020 µg/mL; inhibition at 50 µM (Pseudomonas aeruginosa): 44.5%; Activity (Acinetobacter baumannii [9]): 31%
24 | CCCCCCCCN1c2ccccc2C(=O)N(O)C1c1ccccc1 (stereo not given) | inactive | 5.5 | 
